From patent US12150995B2, “IRAK degraders and uses thereof” (Kymera Therapeutics, Inc., priority 2020, dated 2024)

molecular target: T1, IRAK4 (Homo sapiens, UniProt Q9NWZ3); assay: IRAK4 MSD Degradation in OCI-LY10; assay type: cell-based; settings: OCI-LY10 cells, Meso Scale Discovery, incubated 4 to 24 hours
T1 construct: endogenous in cells; host or cells: OCI-LY10
T1 sequence (Q9NWZ3 1-460): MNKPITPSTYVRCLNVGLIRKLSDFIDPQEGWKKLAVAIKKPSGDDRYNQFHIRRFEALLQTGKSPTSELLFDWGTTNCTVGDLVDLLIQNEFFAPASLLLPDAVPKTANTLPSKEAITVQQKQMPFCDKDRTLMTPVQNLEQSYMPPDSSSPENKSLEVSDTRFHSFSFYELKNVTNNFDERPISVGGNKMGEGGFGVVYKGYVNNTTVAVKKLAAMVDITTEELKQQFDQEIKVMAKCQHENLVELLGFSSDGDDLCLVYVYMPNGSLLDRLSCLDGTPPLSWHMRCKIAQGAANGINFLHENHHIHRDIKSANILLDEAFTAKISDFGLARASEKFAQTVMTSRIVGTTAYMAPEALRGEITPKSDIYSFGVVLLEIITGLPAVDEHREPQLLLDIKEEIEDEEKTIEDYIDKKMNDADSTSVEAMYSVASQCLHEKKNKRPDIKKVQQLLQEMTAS
Experimental: Degradation of IRAK4 in OCI-LY10 was quantitatively measured using Meso Scale Discovery technology. OCI-LY10 cells were seeded in 96-well plates (Corning 3799) with a density of 300,000 cells per well in 100 μL fresh media. Compounds were then added to the assay plates with a final top concentration of 1 to 10 μM in a 1:3 dilution series with total of 8 doses. The assay plates were then incubated for 4 to 24 hours at 37° C. under 5% CO2. The assay plates were then centrifuged for 5 minutes and the cell pellets were treated with 100 μL/well RIPA lysis buffer (Boston BioProducts BP-115D) with proteinase inhibitors. To prepare MSD assay plates (Meso Scale Discovery Catalog number L15XA-3), the plates were coated with 2 μg/mL capture antibody (mouse Anti-IRAK4 antibody [2H9], ab119942) in PBS, at 40 μL/well. The plates were then incubated overnight at 4° C., washed 3 times with 150 μL/well TBST buffer (Cell Signaling Technology, Catalog number 9997S) and blocked with 150 μL/well blocking buffer (Meso Scale Discovery Catalog number R93BA-4). Cell lysates were then added to MSD assay plates and the plates were incubated at room temperature for 1 hour. The plates were then washed 3 times with 150 μL/well TBST buffer and […] primary detection antibody (rabbit Anti-IRAK4 antibody [Y279], from Abcam. Catalog number ab32511, 1 μg/mL). The assay plates were then incubated at room temperature for 1 hour, washed 3 times with 150 μL/well TBST buffer and 254/well secondary detection antibody, SULFO-TAG anti-rabbit antibody were added (anti rabbit antibody from Meso Scale Discovery, Catalog number R32AB-1, 1 μg/mL). The assay plates were then incubated at room temperature for 1 hour, washed 3 times with 150 μL/well TBST buffer, and 150 μL/well MSD reading buffer (Meso Scale Discovery catalog number R92TC-2) was added. The plates were then analyzed by a MSD reader (Meso Scale Discovery, Model Quick Plex SQ 120). The data was then analyzed by software Prism 7.0 from GraphPad and the dose-depended IRAK4 degradation were fit using a three-parameter logistic equation to calculate DC50.
The letter codes for IRAK4 DC50 include: A (<0.01 μM); B (0.01-0.05 μM); C (0.05-0.1 μM); D (0.1-0.2 μM); and E (>0.2 μM).

Row | DC50 | SMILES
1 | 10 to 50 nM | COC(=O)c1cc2nn([C@H]3CC[C@H](CN4CCN(c5cccc6c5n(C)c(=O)n6C5CCC(=O)NC5=O)CC4)CC3)cc2cc1NC(=O)c1cccc(C(F)(F)F)n1 (stereo partly drawn) [I-405]
2 | < 10 nM | COc1cc2nn([C@H]3C[C@H](CN4CCC(c5c(C)ccc6c5n(C)c(=O)n6C5CCC(=O)NC5=O)CC4)C3)cc2cc1NC(=O)c1cccc(C(F)(F)F)n1 (stereo partly drawn) [I-137]
3 | 10 to 50 nM | COc1cc2nn([C@H]3C[C@H](CN4CC(c5cccc6c5n(C)c(=O)n6C5CCC(=O)NC5=O)C4)C3)cc2cc1NC(=O)c1cccc(C(F)(F)F)n1 (stereo partly drawn) [I-46, N-[2-[3-[[3-[1-(2,6-dioxo-3-piperidyl)-3-methyl-2-oxo-benzimidazol-4-yl]azetidin-1-yl]methyl]cyclobutyl]-6-methoxy-indazol-5-yl]-6-(trifluoromethyl)pyridine-2-carboxamide]
4 | > 200 nM | COc1cc2nn(CCN(C)C3CCN(c4cccc5c4n(C)c(=O)n5C4CCC(=O)NC4=O)CC3)cc2cc1NC(=O)c1cccc(C(F)(F)F)n1 (stereo not drawn) [I-20, N-[2-[2-[[1-[1-(2,6-dioxo-3-piperidyl)-3-methyl-2-oxo-benzimidazol-4-yl]-4-piperidyl]-methyl-amino]ethyl]-6-methoxy-indazol-5-yl]-6-(trifluoromethyl)pyridine-2-carboxamide]
5 | 10 to 50 nM | COc1cc2nn(C3CCN(C[C@H]4CC[C@H](c5cccc6c5n(C)c(=O)n6C5CCC(=O)NC5=O)CC4)CC3)cc2cc1NC(=O)c1cccc(C(F)(F)F)n1 (stereo partly drawn) [I-237]
6 | < 10 nM | COc1cc2nn([C@H]3C[C@H](CN4CCC(c5c(Cl)ccc6c5n(C)c(=O)n6C5CCC(=O)NC5=O)CC4)C3)cc2cc1NC(=O)c1cccc(C(F)(F)F)n1 (stereo partly drawn) [I-87, N-[2-[3-[[4-[5-chloro-1-(2,6-dioxo-3-piperidyl)-3-methyl-2-oxo-benzimidazol-4-yl]-1-piperidyl]methyl]cyclobutyl]-6-methoxy-indazol-5-yl]-6-(trifluoromethyl)pyridine-2-carboxamide]
7 | < 10 nM | COc1cncc(C(=O)Nc2cc3cn([C@H]4CC[C@H](CN5CCN(c6cccc7c6n(C)c(=O)n7C6CCC(=O)NC6=O)CC5)CC4)nc3cc2OC)c1 (stereo partly drawn) [I-287]
8 | 100 to 200 nM | Cn1c(=O)n(C2CCC(=O)NC2=O)c2cccc(C3CCN(C[C@H]4C[C@H](n5cc6cc(NC(=O)c7cccc(C(F)(F)F)n7)ccc6n5)C4)CC3)c21 (stereo partly drawn) [I-140]
9 | < 10 nM | COc1cc2nn([C@H]3C[C@H](CN(C)C4CCN(c5cccc6c5n(C)c(=O)n6C5CCC(=O)NC5=O)CC4)C3)cc2cc1NC(=O)c1cccc(C(F)(F)F)n1 (stereo partly drawn) [I-31, N-[2-[3-[[[1-[1-(2,6-dioxo-3-piperidyl)-3-methyl-2-oxo-benzimidazol-4-yl]-4-piperidyl]-methyl-amino]methyl]cyclobutyl]-6-methoxy-indazol-5-yl]-6-(trifluoromethyl)pyridine-2-carboxamide]
10 | 10 to 50 nM | Cc1cc2nn([C@H]3CC[C@H](CN4CCN(c5cccc6c(N7CCC(=O)NC7=O)cncc56)CC4)CC3)cc2cc1NC(=O)c1cccc(C(F)(F)F)n1 [I-261]
11 | < 10 nM | COc1cc2nn([C@H]3CC[C@H](CN4CCN(c5cccc6c5n(C)c(=O)n6C5CCC(=O)NC5=O)CC4)CC3)cc2cc1NC(=O)c1cncc(C)c1 (stereo partly drawn) [I-365]
12 | < 10 nM | CC(C)c1cc2nn([C@H]3CC[C@H](CN4CCN(c5cccc6c5n(C)c(=O)n6C5CCC(=O)NC5=O)CC4)CC3)cc2cc1NC(=O)c1cccc(C(F)(F)F)n1 (stereo partly drawn) [I-397]
13 | 10 to 50 nM | CN(C)c1cc2nn([C@H]3CC[C@H](CN4CCN(c5cccc6c5n(C)c(=O)n6C5CCC(=O)NC5=O)CC4)CC3)cc2cc1NC(=O)c1cccc(C(F)(F)F)n1 (stereo partly drawn) [I-388]
14 | < 10 nM | COc1cc2nn([C@H]3CC[C@H](CN4CCN(c5cccc6c5n(C)c(=O)n6C5CCC(=O)NC5=O)CC4)CC3)cc2cc1NC(=O)c1cncc(C#N)c1 (stereo partly drawn) [I-165]
15 | 10 to 50 nM | COc1cc2nn([C@H]3CC[C@H](CN(C)C4CCN(c5c(Cl)ccc6c5n(C)c(=O)n6C5CCC(=O)NC5=O)CC4)CC3)cc2cc1NC(=O)c1cccc(C(F)(F)F)n1 (stereo partly drawn) [I-53]
16 | < 10 nM | C[C@H]1CN(c2cccc3c2n(C)c(=O)n3C2CCC(=O)NC2=O)CCN1C[C@H]1CC[C@H](n2cc3cc(NC(=O)c4cccc(C(F)(F)F)n4)ccc3n2)CC1 (stereo partly drawn) [I-248]
17 | < 10 nM | CN(C(=O)[C@H]1CC[C@H](n2cc3cc(NC(=O)c4cccc(C(F)(F)F)n4)ncc3n2)CC1)C1CCN(c2cccc3c2n(C)c(=O)n3C2CCC(=O)NC2=O)CC1 (stereo partly drawn) [I-187]
18 | < 10 nM | Cn1c(=O)n(C2CCC(=O)NC2=O)c2cccc(C3CC4CCC(C3)N4C[C@H]3CC[C@H](n4cc5cc(NC(=O)c6cccc(C(F)(F)F)n6)ccc5n4)CC3)c21 (single isomer, unassigned) [I-251]

The remaining lines, values behind:

Row | SMILES | DC50
19 | CC(C)(O)c1cc2nc([C@H]3CC[C@H](CN4CCN(CCNc5cccc6c5C(=O)N(C5CCC(=O)NC5=O)C6=O)CC4)CC3)sc2cc1NC(=O)c1cncc(C#N)c1 (stereo partly drawn) [I-453] | 100 to 200 nM
20 | COc1cc2nn([C@H]3CC[C@@H](CN4CC5(CC(CCNc6cccc7c6C(=O)N(C6CCC(=O)NC6=O)C7=O)C5)C4)CC3)cc2cc1NC(=O)c1cccc(C(C)(F)F)n1 (stereo partly drawn) [I-11, 6-(1,1-Difluoroethyl)-N-[2-[4-[[6-[2-[[2-(2,6-dioxo-3-piperidyl)-1,3-dioxo-isoindolin-4-yl]amino]ethyl]-2-azaspiro[3.3]heptan-2-yl]methyl]cyclohexyl]-6-methoxy-indazol-5-yl]pyridine-2-carboxamide] | 50 to 100 nM
21 | COc1cc2nn([C@H]3CC[C@H](CN4CCN(C[C@H]5C[C@H](c6cccc7c(N8CCC(=O)NC8=O)cncc76)C5)CC4)CC3)cc2cc1NC(=O)c1cccc(C(F)(F)F)n1 [I-285] | < 10 nM
22 | CC(C)Nc1cc(-c2ccc3cc(C#N)cnn23)ncc1C(=O)N[C@H]1CC[C@H](CN2CCC(OCC#Cc3cccc4c3n(C)c(=O)n4C3CCC(=O)NC3=O)CC2)CC1 (stereo partly drawn) [I-199] | 10 to 50 nM
23 | CN(CCCN(C)[C@H]1C[C@H](Nc2cccc3c2C(=O)N(C2CCC(=O)NC2=O)C3=O)C1)C[C@H]1CC[C@H](n2cc3cc(NC(=O)c4cccc(C(F)(F)F)n4)c(C(C)(C)O)cc3n2)CC1 (stereo partly drawn) [I-263] | 10 to 50 nM
24 | Cn1c(=O)n(C2CCC(=O)NC2=O)c2cccc(C3CCN(C[C@H]4CC[C@H](n5cc6cc(NC(=O)c7cccc(C(F)(F)F)n7)ccc6n5)CC4)C(C(F)(F)F)C3)c21 (stereo partly drawn) [I-172] | > 200 nM
25 | COc1cc2nn([C@H]3CC[C@H](CN4CCC5(CC4)CCN(c4cccc6c4n(C)c(=O)n6C4CCC(=O)NC4=O)CC5)CC3)cc2cc1NC(=O)c1cncc(C#N)c1 (stereo partly drawn) [I-207] | < 10 nM
26 | COc1cc2c(cc1NC(=O)c1cccc(C(F)(F)F)n1)cc([C@H]1CC[C@H](CN3CCC(c4cccc5c4n(C)c(=O)n5C4CCC(=O)NC4=O)CC3)CC1)n2C (stereo partly drawn) [I-43] | > 200 nM
27 | CC(C)(O)c1cc2nc([C@H]3CC[C@H](CN4CCN(CCCNc5cccc6c5C(=O)N(C5CCC(=O)NC5=O)C6=O)CC4)CC3)sc2cc1NC(=O)c1cccc(C#N)n1 (stereo partly drawn) [I-440] | 10 to 50 nM
28 | CC(C)Nc1cc(-n2ccc3cc(C#N)cnc32)ncc1C(=O)NC[C@H]1CC[C@H](CN(C)C2CCN(c3cccc4c3n(C)c(=O)n4C3CCC(=O)NC3=O)CC2)CC1 (stereo partly drawn) [I-105] | 50 to 100 nM
29 | COc1cc2nn([C@H]3C[C@H](CN4CCC(c5cccc6c(N7CCC(=O)NC7=O)cncc56)CC4)C3)cc2cc1NC(=O)c1cccc(C(F)(F)F)n1 [I-91] | 10 to 50 nM
30 | Cn1c(=O)n(C2CCC(=O)NC2=O)c2cccc(C3CCN(C[C@H]4CC[C@H](n5cc6cc(NC(=O)c7cncc(C#N)c7)c(OC(F)(F)F)cc6n5)CC4)CC3)c21 (stereo partly drawn) [I-325] | > 200 nM
31 | CC(C)Nc1c(C(=O)N[C@H]2CC[C@H](CN3CCC(c4cccc5c4n(C)c(=O)n5C4CCC(=O)NC4=O)CC3)CC2)cnc2c1Oc1cc(C#N)ccc1O2 (stereo partly drawn) [I-309] | < 10 nM
32 | COc1ccc2c(c1N1CCN(C[C@H]3CC[C@H](n4cc(-c5cnc(-n6ccc7cc(C#N)cnc76)cc5NC(C)C)nn4)CC3)CC1)n(C)c(=O)n2C1CCC(=O)NC1=O (stereo partly drawn) [I-295] | 10 to 50 nM
33 | O=C1CCN(c2cncc3c(C4CCN(C[C@H]5CC[C@H](n6cc7cc(NC(=O)c8cccc(C(F)(F)F)n8)c(C(F)F)cc7n6)CC5)CC4)cccc23)C(=O)N1 [I-293] | < 10 nM
